Assay [1] deals with BT-483 (Breast Carcinoma). Briefly: Bliss excess, mean over the matrix (fraction); higher = more synergy. Summed up: (§1)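 Cell lines grown in DMEM/F12 or RPMI with 10% FBS were plated in 1536-well plates and held 24 hours at 37°C, 5% CO2 before 72 hours of exposure to two-drug dose matrices, with DMSO typically at 0.2%. CellTiter-Glo 2.0 luminescence gave viability, which was converted to inhibition. Vehicle wells were set to 0 and blank wells to 1. Combination Emax is the second-highest inhibition in the matrix, and Bliss excess is the observed combination effect minus the expected EA + EB − EA·EB, where EA and EB are the single-agent effects.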

Assay [2] has as its system CAPAN-2 (Pancreatic Carcinoma). Described as above. Put shortly:
as §1

Assay [3] relates to COLO-824 (Breast Carcinoma). The description is as above. Summed up:
as §1

The subject of the next assay is GI-ME-N (Neuroblastoma). Described as above. Put shortly:
as §1

In assay [4] the test system is MDST8 (Colorectal Carcinoma). Described as above. Put shortly: as §1
The test system of assay [5] is NCI-H1581 (Non-Small Cell Lung Carcinoma). The description is as above. Summed up: as §1
The next assay has as its system PA-1 (Ovarian Carcinoma). Described as above. Put shortly:
as §1

Assay [6] has as its system BT-483 (Breast Carcinoma). Briefly: combination Emax (second highest fraction inhibited in the dose matrix, 72 h); higher = more inhibition; extreme values may be limits of the assay. Summed up:
as §1
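For Bliss excess, mean over the matrix in this document: after 72 h of two-drug dosing.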

Consider `CN(C)CCCOc1ccc(-c2ccc3ncc4c(c3c2)n(C2CCOCC2)c(=O)n4C)cn1` [AZD0156] + O=C(c1cc(Cc2n[nH]c(=O)c3ccccc23)ccc1F)N1CCN(C(=O)C2CC2)CC1 [Olaparib] (first compound max 3 µM, partner max 3 µM), for which the Bliss excess in assay [1] was -0.0118; in assay [2] it was -0.0535; in assay [3], 0.0729; in the assay with GI-ME-N (Neuroblastoma) it was -0.0116; in assay [4] it was 0.0269; in assay [5], 0.0465. Besides, in the assay on PA-1 (Ovarian Carcinoma), the Bliss excess came out at 0.122. For the same molecule, the “combination Emax” value in assay [6] came out at 0.313.
As for `C=CCn1c(=O)c2cnc(Nc3ccc(N4CCN(C)CC4)cc3)nc2n1-c1cccc(C(C)(C)O)n1` [AZD1775] + C1CN(CCC1(C(=O)N[C@@H](CCO)C2=CC=C(C=C2)Cl)N)C3=NC=NC4=C3C=CN4 [Capivasertib] (first compound max 3 µM, partner max 3 µM), the Bliss excess was -0.0416 in assay [1]; -0.0949 in assay [2]; -0.0289 in assay [3]; -0.0726 in the assay on GI-ME-N (Neuroblastoma); -0.0769 in assay [4]; 0.0271 in assay [5]. Moreover, in the assay on PA-1 (Ovarian Carcinoma), the Bliss excess was -0.0229. Also, the “combination Emax” value in assay [6] was 0.391.
On to `CC1(C)CCC(CN2CCN(c3ccc(C(=O)NS(=O)(=O)c4ccc(NCC5CCOCC5)c([N+](=O)[O-])c4)c(Oc4cnc5[nH]ccc5c4)c3)CC2)=C(c2ccc(Cl)cc2)C1` [Venetoclax] + Cn1cnc2c(F)c(Nc3ccc(Br)cc3Cl)c(C(=O)NOCCO)cc21 [Selumetinib] (first compound max 1 µM, 7x7, partner max 3 µM), for which the Bliss excess in assay [2] was -0.0256; in assay [3] it was 0.0356; in the assay on GI-ME-N (Neuroblastoma), -0.0744; in assay [4], -0.0579; in assay [5], -0.0158; with PA-1 (Ovarian Carcinoma) it was -0.0117.

These data come from the supplement of paper PMC11061612.
